Reference: patent US7678913B2, “Ureas as factor Xa inhibitors” (Portola Pharmaceuticals, Inc., priority 2004, dated 2010)

Target: T1, human plasma protein factor Xa (Homo sapiens, UniProt P00742)
T1 construct: measure proteolytic activity of the enzyme (factor Xa); purchased Haematologic Technologies (Essex Junction, Vt.); host or cells: human plasma
Assay: Factor Xa IC50 determination (cleavage of chromogenic substrate S-2765)
Format: biochemical
Details: fXa 1 nM, S-2765 100 μM, Tris buffered saline pH 7.4, room temperature
From the text: This example illustrates methods for evaluating the compounds of the invention, along with results obtained for such assays. The in vitro and in vivo Factor Xa isoform activities of the inventive compounds can be determined by various procedures known in the art, such as a test for their ability to inhibit the activity of the Factor Xa isoform. […] The IC50 value is the concentration (in nM) of the compound required to provide 50% inhibition of Factor Xa isoform.
An in vitro assay for detecting and measuring inhibition activity against Factor Xa is as follows:
• The substrate S-2765 (Z-D-Arg-Gly-Arg-pNA.HCl) was obtained from Diapharma (West Chester, Ohio). Enzyme: • The human plasma protein factor Xa was purchased from Haematologic Technologies (Essex Junction, Vt.). Methods
All assays, which are performed in 96-well microtiter plates, measure proteolytic activity of the enzyme (factor Xa) by following cleavage of paranitroanilide substrate. The assay buffer used for proteolytic assays was Tris buffered saline (20 mM Tris, 150 mM NaCl, 5 mM CaCl2, 0.1% Bovine serum albumin (BSA), 5% Dimethly Sulfoxide (DMSO) pH 7.4). In a 96-well microtiter plate, inhibitor was serially diluted to give a range of concentrations from 0.01 nM to 10 μM (final). Duplicate sets of wells were assayed and control wells without inhibitor were included. Enzyme was added to each well,(fXa concentration=1nM), the plate was shaken for 5 seconds and then incubated for 5 minutes at room temperature. S2765 was added (100 μM final) and the plate was shaken for 5 seconds (final liquid volume in each well was 200 μl). The degree of substrate hydrolysis was measured at 405 nm on a Thermomax plate reader (Molecular Devices, Sunnyvale, Calif.) for 2 minutes. The initial velocities (mOD/min), for each range of inhibitor concentrations, were fitted to a four parameter equation using Softmax data analysis software. The parameter C, derived from the resulting curve-fit, corresponded to the concentration for half maximal inhibition (IC50).

T1 sequence (P00742 235-488 limits assumed): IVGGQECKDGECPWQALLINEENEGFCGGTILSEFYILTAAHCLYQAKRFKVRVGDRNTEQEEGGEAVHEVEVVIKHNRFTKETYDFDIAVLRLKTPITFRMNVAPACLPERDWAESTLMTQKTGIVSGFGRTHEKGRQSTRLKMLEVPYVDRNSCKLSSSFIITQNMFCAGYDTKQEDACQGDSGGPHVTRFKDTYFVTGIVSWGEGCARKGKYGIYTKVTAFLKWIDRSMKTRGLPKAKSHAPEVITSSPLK
T1 sequence (P00742 41-179 partner limits assumed): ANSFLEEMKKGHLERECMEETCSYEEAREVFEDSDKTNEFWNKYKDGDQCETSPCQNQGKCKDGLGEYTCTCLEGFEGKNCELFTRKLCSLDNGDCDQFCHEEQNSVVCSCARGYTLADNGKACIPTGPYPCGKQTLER

| SMILES | IC50 |
| --- | --- |
| O=C(Nc1ccc(Cl)cc1)N[C@@H](C(=O)Nc1ccc(-n2ccccc2=O)cc1)c1ccccc1 [Example 138, (2R) N-[4-(2-pyridon-1-yl)phenyl]-2-phenyl-2-(4-chlorophenylaminocarbonylamino)-acetamide] | ≤ 100 nM |
| Cc1ccccc1C(NC(=O)Nc1ccc(Cl)cc1)C(=O)Nc1ccc(-n2ccnc2CN(C)C)cc1F (stereo not drawn) [Example 85, N-[4-(2-dimethylaminomethyl-imidazol-1-yl)-2-fluorophenyl]-2-(2-methylphenyl)-2-(4-chlorophenylaminocarbonylamino)-acetamide] | ≤ 100 nM |
| CCN(C)C(=N)c1ccc(NC(=O)C(NC(=O)Nc2ccc(Cl)cc2)c2ccccc2)cc1 (stereo not drawn) [Example 24, N-[4-(N-methyl-N-ethylaminoimino)phenyl]-2-phenyl-2-(4-chlorophenylaminocarbonylamino)-acetamide] | ≤ 100 nM |
| CN1CCC(N2CCN(C(=O)C(NC(=O)Nc3ccc(Cl)cc3)c3ccccc3F)CC2)CC1 (stereo not drawn) [Example 127] | ≤ 100 nM |
| O=C(Nc1ccc(Cl)cc1)NC(C(=O)Nc1ccc(-c2cccc[n+]2[O-])cc1)c1ccccc1Br (stereo not drawn) [Example 79, N-[4-(N-oxo-pyridin-2-yl)phenyl]-2-(2-bromophenyl)-2-(4-chlorophenylaminocarbonylamino)-acetamide] | ≤ 100 nM |
| CN1CCN=C1c1ccc(NC(=O)C(NC(=O)Nc2ccc(Cl)cc2)c2ccccc2Cl)cc1 (stereo not drawn) [Example 75, N-[4-(1-methyl-4,5-dihydro-1H-imidazol-2-yl)phenyl]-2-(2-chlorophenyl)-2-(4-chlorophenylaminocarbonylamino)-acetamide] | ≤ 100 nM |
| O=C(Nc1ccc(Cl)cc1)NC(C(=O)N1CCC(N2CCOCC2=O)CC1)c1ccccc1F (stereo not drawn) [Example 144, 4-(3-morpholinon-4-yl)piperidin-1-yl-2-(2-fluorophenyl)-2-(4-chlorophenylaminocarbonylamino)-acetamide] | ≤ 100 nM |
| CN1CCN=C1c1ccc(NC(=O)C(NC(=O)Nc2ccc(Cl)cc2)(c2ccccc2)c2ccccc2)cc1 [Example 14, N-[4-(1-methyl-4,5-dihydro-1H-imidazol-2-yl)phenyl]-2,2-diphenyl-2-(4-chlorophenylaminocarbonylamino)-acetamide] | ≥ 500 nM |
| COc1ccccc1C(NC(=O)Nc1ccc(Cl)cc1)C(=O)N1CCN(C2CCCNCC2)CC1 (stereo not drawn) [Example 152, 4-(homopiperidin-4-yl)piperazin-1-yl-2-(2-methoxyphenyl)-2-(4-chlorophenylaminocarbonylamino)-acetamide] | ≤ 100 nM |
| N=C(c1ccc(NC(=O)C(NC(=O)Nc2ccc(Cl)cc2)c2ccccc2Br)cc1)N1CCCC1 (stereo not drawn) [Example 81] | ≤ 100 nM |
| CCOC(=O)C1CCN(C(=O)CC(NC(=O)Nc2ccc(Cl)cc2)C(=O)Nc2ccc(C3=NCCN3C)cc2)CC1 (stereo not drawn) [Example 67] | ≥ 500 nM |
| CN1CCN=C1c1ccc(NC(=O)C(NC(=O)Nc2ccc(Cl)cc2)c2ccccc2SC(F)(F)F)cc1 (stereo not drawn) [Example 122, N-[4-(1-methyl-4,5-dihydro-1H-imidazol-2-yl)phenyl]-2-(2-trifluoromethylthiophenyl)-2-(4-chlorophenylaminocarbonylamino)-acetamide] | ≤ 100 nM |
| COc1ccccc1C(NC(=O)Nc1ccc(Cl)cc1)C(=O)Nc1ccc(N2CCCN(C)CC2)cc1 (stereo not drawn) [Example 111, N-[4-(4-methyl-homopiperazinyl)phenyl]-2-(2-methoxyphenyl)-2-(4-chlorophenylaminocarbonylamino)-acetamide] | ≤ 100 nM |
| N=C(c1ccc(NC(=O)C(NC(=O)Nc2ccc(Cl)cc2)c2ccccc2F)cc1)N1CCCC1 (stereo not drawn) [Example 41] | ≤ 100 nM |
| CC(C)N1CCC(NC(=O)C(NC(=O)Nc2ccc(Cl)cc2)c2ccccc2Br)CC1 (stereo not drawn) [Example 82, N-(1-isopropylpiperidin-4-yl)-2-(2-bromophenyl)-2-(4-chlorophenylamino-carbonylamino)-acetamide] | ≥ 500 nM |
| N=C(c1ccc(NC(=O)C(NC(=O)Nc2ccc(Cl)cc2)c2cccs2)cc1)N1CCCCC1 (stereo not drawn) [Example 22] | ≤ 100 nM |
| C=CCN(C)C(=N)c1ccc(NC(=O)C(NC(=O)Nc2ccc(Cl)cc2)c2ccccc2)cc1 (stereo not drawn) [Example 26, N-[4-(N-methyl-N-allylaminoimino)phenyl]-2-phenyl-2-(4-chlorophenylaminocarbonylamino)-acetamide] | ≤ 100 nM |

| SMILES | IC50 |
| --- | --- |
| O=C(Nc1ccc(Cl)cc1)N[C@@H](C(=O)N1CCC(N2CCOCC2=O)CC1)c1ccccc1 [Example 142, (2R) 4-(3-morpholinon-4-yl)piperidin-1-yl-2-phenyl-2-(4-chlorophenylaminocarbonylamino)-acetamide] | ≤ 100 nM |
| CN1CCN=C1c1ccc(NC(=O)C(CC(=O)N2CCOCC2)NC(=O)Nc2ccc(Cl)cc2)cc1 (stereo not drawn) [Example 65, N-[4-(1-methyl-4,5-dihydro-1H-imidazol-2-yl)phenyl]-2-(morpholin-4-ylcarbonylmethyl)-2-(4-chlorophenylaminocarbonylamino)-acetamide] | ≥ 500 nM |
| CN1CCN=C1c1ccc(NC(=O)[C@@H](CC(=O)OCc2ccccc2)NC(=O)Nc2ccc(Cl)cc2)cc1 [Example 61, (2R) N-[4-(1-methyl-4,5-dihydro-1H-imidazol-2-yl)phenyl]-2-benzyloxycarbonylmethyl-2-(4-chlorophenylaminocarbonylamino)-acetamide] | 100 to 500 nM |
| CN1CCN=C1c1ccc(NC(=O)C(NC(=O)Nc2ccc(Br)cc2)c2ccccc2F)cc1 (stereo not drawn) [Example 40, N-[4-(1-methyl-4,5-dihydro-1H-imidazol-2-yl)phenyl]-2-(2-fluorophenyl)-2-(4-bromophenylaminocarbonylamino)-acetamide] | ≤ 100 nM |
| COc1ccccc1C(NC(=O)Nc1ccc(Cl)cc1)C(=O)NC1CCN(C(C)C)CC1 (stereo not drawn) [Example 110, N-(1-isopropylpiperidin-4-yl)-2-(2-methoxyphenyl)-2-(4-chlorophenylamino-carbonylamino)-acetamide] | ≥ 500 nM |
| Cc1ccccc1C(NC(=O)Nc1ccc(Cl)cc1)C(=O)N1CCN(C2CCN(C)CC2)CC1 (stereo not drawn) [Example 91] | ≤ 100 nM |
| CC(C)N1CCC(NC(=O)C(NC(=O)Nc2ccc(Cl)cc2)c2ccccc2Cl)CC1 (stereo not drawn) [Example 103, N-(1-isopropylpiperidin-4-yl)-2-(2-chlorophenyl)-2-(4-chlorophenylamino-carbonylamino)-acetamide] | ≥ 500 nM |
| CN1CCN=C1c1ccc(NC(=O)C(NC(=O)Nc2ccc(Cl)cc2)c2ccccc2Oc2ccccc2)cc1 (stereo not drawn) [Example 124, N-[4-(1-methyl-4,5-dihydro-1H-imidazol-2-yl)phenyl]-2-(2-phenoxyphenyl)-2-(4-chlorophenylaminocarbonylamino)-acetamide] | ≤ 100 nM |
| CN1CCN=C1c1ccc(NC(=O)C(CC(=O)N2CCCCCC2)NC(=O)Nc2ccc(Cl)cc2)cc1 (stereo not drawn) [Example 68, N-[4-(1-methyl-4,5-dihydro-1H-imidazol-2-yl)phenyl]-2-(homopiperidin-1-ylcarbonylmethyl)-2-(4-chlorophenylaminocarbonylamino)-acetamide] | ≥ 500 nM |
| CN1CCC(N2CCN(C(=O)C(NC(=O)Nc3ccc(Cl)cc3)c3ccccc3I)CC2)CC1 (stereo not drawn) [Example 118] | ≤ 100 nM |
| CN(C)C(=N)c1ccc(N2C(=O)C(NC(=O)Nc3ccc(Cl)cc3)Cc3ccccc32)cc1 (stereo not drawn) [Example 134, 1-[4-(dimethylaminoimino)phenyl]-3-(4-chlorophenylaminocarbonylamino)-3,4-dihydroquinolin-2-one] | 100 to 500 nM |
| O=C(Nc1ccc(Cl)cc1)N[C@H](C(=O)Nc1ccc(-n2ccccc2=O)cc1)c1ccccc1 [Example 137, (2S) N-[4-(2-pyridon-1-yl)phenyl]-2-phenyl-2-(4-chlorophenylaminocarbonylamino)-acetamide] | ≤ 100 nM |
| COc1ccccc1C(NC(=O)Nc1ccc(Cl)cc1)C(=O)N1CCC(N2CCN(C)CC2=O)CC1 (stereo not drawn) [Example 151, 4-(4-methyl-2-piperazinon-1-yl)piperidin-1-yl-2-(2-methoxyphenyl)-2-(4-chlorophenylaminocarbonylamino)-acetamide] | ≥ 500 nM |
| CN(C)C(=N)c1ccc(NC(=O)C(NC(=O)Nc2ccc(Cl)cc2)c2ccccc2F)cc1 (stereo not drawn) [Example 43, N-[4-(dimethylaminoimino)phenyl]-2-(2-fluorophenyl)-2-(4-chlorophenylaminocarbonylamino)-acetamide] | ≤ 100 nM |
| CN1CCN=C1c1ccc(NC(=O)C(Cc2ccccc2)NC(=O)Nc2ccc(Cl)cc2)cc1 (stereo not drawn) [Example 5, N-[4-(1-methyl-4,5-dihydro-1H-imidazol-2-yl)phenyl]-2-benzyl-2-(4-chlorophenylaminocarbonylamino)-acetamide] | ≤ 100 nM |
| CSc1ccccc1C(NC(=O)Nc1ccc(Cl)cc1)C(=O)Nc1ccc(-c2cccc[n+]2[O-])cc1 (stereo not drawn) [Example 126, N-[4-(N-oxo-pyridin-2-yl)phenyl]-2-(2-methylthiophenyl)-2-(4-chlorophenylaminocarbonylamino)-acetamide] | ≤ 100 nM |
